Paper PMC5370276, “Induction of Osteopontin by Dengue Virus-3 Infection in THP-1 Cells: Inhibition of the Synthesis by Brefelamide and Its Derivative” (Frontiers in Microbiology, 2017)

What was measured:
[1] = Cytotoxicity, CellTiter 96 Aqueous (MTS) cell proliferation assay; format: cell-based, human; settings: human, THP-1 cells, 24 h incubation
Method: (§1) Brefelamide, henceforth referred to as compound A ([Kikuchi et al., 2005]), is an aromatic amide isolated from methanol extracts of Dictyostelium brefeldianum and D. giganteum slime mold fruiting bodies; its derivative, henceforth referred to as compound B ([Kikuchi et al., 2005]; [Zhang et al., 2016b]), contains a methyl ether group (-OCH3). Both compounds were dissolved in dimethyl sulfoxide (DMSO) at a concentration of 50 mM and stored at -20°C. Aliquots of the stock solutions were further diluted with appropriate growth medium to the desired concentrations before use. […] THP-1 and 293T cells were seeded in 96-well tissue culture plates at a density of 1.8 × 10^4/well in 90 μl of the appropriate growth medium and incubated for 24 h at 37°C in a humidified 5% CO2 atmosphere. The following day, 10 μl of compounds A and B at concentrations ranging from 0.0001 to 10 mM were added to each well. […] The absorbance at 490 nm was recorded with an ELISA plate reader and the IC50 value was determined by identifying the X-axis value corresponding to one-half of the difference between the maximum and minimum absorbance values using GraphPad Prism v.6 software (GraphPad Inc., San Diego, CA, USA).

[2] = tested on: Osteopontin (OPN) in THP-1 cells; experiment: OPN protein level in culture supernatant by ELISA, THP-1 cells; format: cell-based, human
Method: (§2) Osteopontin levels in the cell culture supernatant were quantified using an ELISA kit (R&D Systems, Minneapolis, MN, USA) according to the manufacturer’s instructions and as previously reported ([Chagan-Yasutan et al., 2014]). The supernatant was diluted eightfold for THP-1 cells and two–fourfold for 293T cells, and the final value was calculated as [drawing 1] and was expressed as pg/ml/10^6 cells.
(§3) Changes in OPN expression in uninfected THP-1 and 293T cell lines in response to treatment with compounds A and B were assessed. Each well in a 12-well tissue culture plate was seeded with 1.8 × 10^5 cells. After overnight incubation, the compounds were added at final concentrations of 3–100 μM. Cells were harvested 3 days later. OPN mRNA and protein levels were quantified by RT-qPCR and ELISA, respectively, to determine the optimal concentration.
(§4) THP-1 and 293T cells were seeded in a Nunc cell culture tube and a 12-well cell culture plate, respectively, at 1.8 × 10^5/well. After overnight incubation, cells were washed and incubated with fresh medium containing DENV-3 at an MOI of 0.1 or incubated without virus for 1.5 h. The inoculum was then removed and cells were washed twice with fresh medium, and compounds A and B were added at final concentrations of 3, 10, and 30 μM. […] On day 3 post-infection, culture supernatants and cell lysates were collected. Cell viability was evaluated by Trypan Blue exclusion and DENV copy number was determined by RT-qPCR. OPN mRNA and protein levels were quantified by RT-qPCR and ELISA, respectively.

[3] = tested on: Osteopontin (OPN) in 293T cells; experiment: OPN protein level in culture supernatant by ELISA, 293T cells; format: cell-based, human
Method: as §2, §3
as §4, with “The inoculum was then removed and cells were washed twice with fresh medium, and compounds A and B were added at final concentrations of 3, 10, and 30 μM.” left out

DENV-3 [4] = experiment: DENV RNA copy number by RT-qPCR in infected THP-1 cells; format: cell-based, Dengue virus-3; settings: 72 h
Method: (§5) Viral copy number in culture supernatants and cell lysates was measured by RT-qPCR as previously described ([Chagan-Yasutan et al., 2013]) using the RNA UltraSense One-Step Quantitative RT-PCR System (Invitrogen, Carlsbad, CA, USA) and Thermal Cycler Dice Real Time System (Takara Bio, Otsu, Japan) according to the manufacturers’ protocols. Primers and hydrolysis probes specific to the 3′ untranslated region of each of the four DENV genotypes have been previously published ([Chagan-Yasutan et al., 2013]). The forward and reverse primers were as follows 5′-[…]-3′ and 5′-[…]-3′ ([Warrilow et al., 2002]). The TaqMan probe was labeled at the 5′ and 3′ ends with a 6-carboxyfluorescein (FAM) reporter and Black Hole quencher (BHQ)-1 (i.e., 5′[FAM]–[…]–[BHQ1]3′). The copy numbers obtained by DENV RT-qPCR were linearly associated with plaque numbers (data not shown).
as §4

DENV-3 [5] = experiment: DENV RNA copy number by RT-qPCR in infected 293T cells; format: cell-based, Dengue virus-3; settings: 0.3 μM
Method: as §5
THP-1 and 293T cells were seeded in a Nunc cell culture tube and a 12-well cell culture plate, respectively, at 1.8 × 10^5/well. After overnight incubation, cells were washed and incubated with fresh medium containing DENV-3 at an MOI of 0.1 or incubated without virus for 1.5 h. […] Cell viability was evaluated by Trypan Blue exclusion and DENV copy number was determined by RT-qPCR. OPN mRNA and protein levels were quantified by RT-qPCR and ELISA, respectively.

THP-1 cells = experiment: Cytotoxicity, CellTiter 96 Aqueous (MTS) cell proliferation assay; format: cell-based, human; settings: 24 h incubation
Method: as §1

293T cells = experiment: as above; format: cell-based, human; settings: 24 h incubation
Method: Both compounds were dissolved in dimethyl sulfoxide (DMSO) at a concentration of 50 mM and stored at -20°C. Aliquots of the stock solutions were further diluted with appropriate growth medium to the desired concentrations before use. […] The following day, 10 μl of compounds A and B at concentrations ranging from 0.0001 to 10 mM were added to each well. After incubation for 24 h, 20 μl per well of 3-(4,5-dimethyl-2-yl)-5-(3-carboxymethoxyphenyl)-2-(4-sulfophenyl)-2H-tetrazolium salt/phenazine methosulfate solution was added to each well, followed by incubation for 4 h. The absorbance at 490 nm was recorded with an ELISA plate reader and the IC50 value was determined by identifying the X-axis value corresponding to one-half of the difference between the maximum and minimum absorbance values using GraphPad Prism v.6 software (GraphPad Inc., San Diego, CA, USA).

OPN mRNA in THP-1 cells = experiment: OPN mRNA expression by RT-qPCR in uninfected and DENV-3-infected THP-1 cells; format: cell-based, human; settings: 72 h
Excerpt: Glyceraldehyde 3-phosphate dehydrogenase (GAPDH) was used as reference gene for normalization of expression levels and was amplified with the following forward and reverse primers: GAPDH-F, 5′-[…]-3′ and GAPDH-R, 5′-[…]-3′. The Taqman probe was as follows: 5′[FAM]–[…]–[BHQ1]3′. A forward and reverse primer set (SPP1-F, 5′-[…]-3′ and SPP1-R, 5′-[…]-3′) and a probe (SPP1-P, 5′-[FAM]–[…] GAAGT–[BHQ1]3′) (Takara Bio) were used to quantify OPN mRNA ([Qin et al., 2015]). The mean fold change in OPN mRNA level was calculated as fold difference = 2^-ΔΔCt.
as §3
THP-1 and 293T cells were seeded in a Nunc cell culture tube and a 12-well cell culture plate, respectively, at 1.8 × 10^5/well. […] Cell viability was evaluated by Trypan Blue exclusion and DENV copy number was determined by RT-qPCR. OPN mRNA and protein levels were quantified by RT-qPCR and ELISA, respectively.

OPN mRNA in 293T cells = experiment: OPN mRNA expression by RT-qPCR in uninfected and DENV-3-infected 293T cells; format: cell-based, human; settings: uninfected 293T cells, 3-30 μM, 72 h
[6] = tested on: DENV-infected THP-1 cells; experiment: Toxicity to DENV-infected THP-1 cells; format: cell-based, human; settings: dose-dependent
Method: as §4

DENV-infected 293T cells = experiment: Toxicity to DENV-infected 293T cells; format: cell-based, human; settings: dose-dependent
Method: as §4

astrocytoma cells = tested on: astrocytoma cells; set-up: method as in Kikuchi et al., 2005; Honma et al., 2009; settings: by inhibiting ERK phosphorylation; ref Kikuchi et al., 2005; Honma et al., 2009; cited from earlier work
[7] = DENV-infected THP-1 cells, MOI 0.1, 3 days

Compound	IC50 at 24 h [1]	OPN levels in supernatant [2, 7]	OPN production ([3]; DENV-infected 293T cells, 0.3 μM)	Virus replication (DENV RNA copy number) (DENV-3 [4]; THP-1 culture supernatant, 0.3-1 μM)	Viral replication (DENV RNA) (DENV-3 [5]; 293T cell lysates)	Viral replication (DENV RNA) (DENV-3 [5]; 293T culture supernatant)	IC50 (THP-1 cells)	IC50 (293T cells)	OPN mRNA expression (OPN mRNA in THP-1 cells; DENV-infected THP-1 cells, MOI 0.1, 3-30 μM)	OPN mRNA expression (OPN mRNA in THP-1 cells; uninfected THP-1 cells, 3-30 μM)	OPN mRNA levels (OPN mRNA in 293T cells)	OPN level in supernatant after treatment ([2]; DENV-infected THP-1 cells, 10 μM compound, 3 days, infected control 67848.9)	OPN levels in supernatant ([2]; uninfected THP-1 cells, 3 days)	OPN expression (protein, supernatant) ([3]; DENV-infected 293T cells, MOI 0.1, 3 days)	OPN expression (protein, supernatant) ([3]; uninfected 293T cells, 3 days)	Suppression of DENV RNA levels relative to the control (DENV-3 [4]; THP-1 cell culture supernatant, 10 μM)	Suppression of DENV RNA levels (DENV-3 [4]; THP-1 cell lysates, 10 μM)	Toxic concentration [6]	Toxic concentration (DENV-infected 293T cells)	Proliferation of astrocytoma cells (astrocytoma cells)
CCC(C)(C)C(=O)O[C@H]1C[C@@H](C)C=C2C=C[C@H](C)[C@H](CC[C@@H]3C[C@@H](O)CC(=O)O3)[C@H]21 [simvastatin, reference compound]	14.1 µM	had no effect	suppressed OPN production	had no effect	inhibited viral replication	inhibited viral replication	–	–	–	–	–	–	–	–	–	–	–	–	–	–
Nc1c(Oc2ccc(O)cc2)cccc1C(=O)CCNC(=O)c1ccc(O)cc1 [compound A, Brefelamide]	–	dose-dependent reduction	–	–	–	–	102 µM	32.2 µM	inhibited OPN mRNA expression in a dose-dependent manner	had no effect	reduced OPN mRNA levels	12247.9 pg/ml/10^6 cells	had no effect	did not inhibit	did not inhibit	75%	not lysates	> 30 µM	> 30 µM	suppressed the proliferation
